From patent publication US9610263B2, “Method of modulating membrane potential of a cell” (VERSITECH LIMITED, priority 2007, dated 2017) come the findings set out here.

Entries after “also recorded” stand apart in the source; their conditions may differ.

The test system of data set [1] is mouse thoracic aortic rings. The data set can be described thus: Vasorelaxation of aortic rings preconstricted by high-K solution (organ bath). Conditions: aortic rings preconstricted by high-K (60 mM K+) solution, n=5, read-out: half-maximal relaxation value IC50. From the text:
Example 52 was for investigating whether Example 2 could promote vasorelaxation during vasoconstriction induced by depolarization. Mouse thoracic aortic rings was mounted in an organ bath apparatus and measured their muscular activity.

Data set [2] relates to Madin-Darby canine kidney (MDCK) cells. The data set is described as follows: Membrane potential of living cells with bis-oxonol (DiBAC4(3)). The data set is classed as cell-based. From the text: To determine the potential of Example 2 for application in biological and medicinal science, Example 2 was investigated for incorporating into the plasma membranes of living cells and, thereby, modulating their membrane potentials by increasing chloride permeability of the cell membranes. A potential-sensitive dye his-oxonal was used to measure the relative changes in membrane potential of the Madin-Darby canine kidney (MDCK) cells, a model for the renal distal tubule and collecting duct that secrete chloride ions. An increase in fluorescence of bis-oxonal indicated cell depolarization while a decrease indicated hyperpolarization. […] This depolarization effect could be ascribed to that the chloride equilibrium potential (ECl) was higher than the resting membrane potential in MDCK cells. Thus, the opening of chloride channels shifted the membrane potential towards the ECl.
In summary, FIG. 14A-E show the effects of adding different substances, including Example 2, on the membrane potential of Madin-Darby canine kidney (MDCK) cells. Membrane potentials of MDCK cells were monitored by the changes of emission intensity of the potential-sensitive dye bis-oxonol (DiBAC4(3)). The increase in the fluorescence intensity indicates depolarization. […] Each point in FIG. 14A-E represents the mean±s.e. (n=20-80 cells in 4-6 experiments).

Data set [3] in a line: Membrane potential of valinomycin-polarized liposomes (safranin O). The note with it: KCl-loaded EYPC-liposomes in KCl/Na2SO4; external addition alone. The format is biochemical. An excerpt: The ability of Example 2 to modulate membrane potentials in polarized liposomes was investigated. […] This depolarization process induced by Example 2 may be attributed to the formation of chloride channels by Example 2 that mediate chloride ions flow out of the polarized liposomes to balance the electrostatic potential established by valinomycin.

With `CC(C)CNC(=O)[C@@H](CC(C)C)ONC(=O)c1cccc(C(=O)NO[C@H](CC(C)C)C(=O)NCC(C)C)c1` [Example 2], the IC50 (in general, the point on the concentration scale where inhibition reaches its midpoint) in data set [1] is 8.42 ± 0.18 µM. As for `O=C(O)c1ccccc1Nc1ccccc1` [DPC, diphenylamine-2-carboxylate], the “membrane potential (bis-oxonol fluorescence)” value in data set [2] (1 mM added alone) is “hyperpolarization of the membrane potential”. Also, the “depolarization induced by low-chloride extracellular solution” value in data set [2] (60 mM Cl- Ringer's solution in presence of 1 mM blocker) is given as “entirely inhibited the depolarization effect; also recorded: did not result in depolarization”.

Take `CC(C)CNC(=O)[C@@H](CC(C)C)ONC(=O)c1cccc(C(=O)NO[C@H](CC(C)C)C(=O)NCC(C)C)n1` [Example 7]: the melting point – broadly, the temperature of the solid-liquid transition – fell in the range of 175 to 177 °C. For `CC(C)C[C@@H](ONC(=O)c1cccc(C(=O)NO[C@H](CC(C)C)C(=O)OC(C)(C)C)c1)C(=O)OC(C)(C)C` [Example 1], the melting point is 57 to 59 °C. Turning to `CC(C)[C@@H]1NC(=O)[C@H](C)OC(=O)[C@@H](C(C)C)NC(=O)[C@@H](C(C)C)OC(=O)[C@H](C(C)C)NC(=O)[C@H](C)OC(=O)[C@@H](C(C)C)NC(=O)[C@@H](C(C)C)OC(=O)[C@H](C(C)C)NC(=O)[C@H](C)OC(=O)[C@@H](C(C)C)NC(=O)[C@@H](C(C)C)OC1=O` [valinomycin], the “membrane potential of liposomes” value in data set [3] is given as “polarized the liposome”. Take `CCCCCCCCCCCCCCCCCCNC(=O)[C@@H](CC(C)C)ONC(=O)c1cccc(C(=O)NO[C@H](CC(C)C)C(=O)NCCCCCCCCCCCCCCCCCC)c1` [Example 5]: the melting point fell in the range of 88 to 90 °C. In the case of `CC(C)CNC(=O)[C@@H](CO)ONC(=O)c1cccc(C(=O)NO[C@H](CO)C(=O)NCC(C)C)c1` [Example 36], the melting point lay in the range of 174 to 176 °C. The same measure, in the same setting: the figure for `CC(C)CNC(=O)[C@@H](Cc1ccccc1)ONC(=O)c1cccc(C(=O)NO[C@H](Cc2ccccc2)C(=O)NCC(C)C)c1` [Example 37] is 145 to 148 °C; for `CC(C)CNC(=O)[C@@H](CC(C)C)ONC(=O)c1ccccc1` [Example 6] it is 130 to 132 °C. `CC(C)CNC(=O)[C@H](CC(C)C)NC(=O)c1cccc(C(=O)N[C@@H](CC(C)C)C(=O)NCC(C)C)c1` [Example 8] registered a melting point of 240 to 242 °C. Same read-out and setting: under `CC(C)CNC(=O)[C@H](CC(C)C)OC(=O)c1cccc(C(=O)O[C@@H](CC(C)C)C(=O)NCC(C)C)c1` [Example 9] stands 137 to 139 °C.
